According to patent US20250042862A1, “AROMATIC HETEROCYCLIC COMPOUND AND APPLICATION THEREOF” (Shanghai Institute of Materia Medica, Chinese Academy of …, priority 2021, published 2025):

Target: human recombinant LSD1 protein (Homo sapiens (Human), UniProt O60341)
Assay: In vitro enzyme inhibition activity assay - LSD1 (Lance Ultra TR-FRET)
Assay type: biochemical
Settings: all compounds tested in the form of hydrochloride
Protocol: The purpose of this experiment was to test the in vitro inhibitory activity of the compounds against LSD1. The human recombinant LSD1 protein used in the experiment was purchased from Active Motif, and the enzyme level activity testing assay of LSD1 was performed using the Lance Ultra LSD1 Histone H3 Lysine 4 Demethylase Assay Kit (PerkinElmer). Tris-buffer (50 mMTris-HCl, 50 mMNaCl, 0.01% Tween-20, 1 mM DTT, 10 μM FAD, 10% glycerol, pH 9.0) was first prepared, and after preparation, the LSD1 fractions required for test were placed in this buffer and incubated for one hour at room temperature; the fractions included 4 μL of substrate solution ([…] Bio-H3K4me2, 1-24aa), 4 μL of enzyme solution (4 nM LSD1), and 2 μL of inhibitor in a 384-well microplate. After these operations, another 5 μL of assay mixture containing Eu-labeled H3K4me0 antibody and ULight-Streptavidin anti-biotin protein was added to the system, after which the fluorescence intensity of the components to be tested was detected by using Envision (PerkinElmer) in TR-FRET mode (excitation wavelength of 320 nm, emission wavelength of 620 nm). The test was repeated a total of three times to minimize errors. The final IC50 data were calculated by the software GraphPad Prism 5, and finally the sigmoidal dose-response (variable slope) method was used to obtain the fitted curve.
The LSD1 inhibitory activities of representative compounds of the present application as well as the positive control compound CC90011 were provided in Table 2. All compounds were tested in the form of hydrochloride.

| Compound | IC50 |
| --- | --- |
| Cn1ncc2cccc(-c3ccc4nc(N5CCC(N)CC5)nc(-c5ccc(C#N)c(F)c5)c4c3)c21 [Compound 11, 4-(2-(4-aminopiperidin-1-yl)-6-(1-methyl-1H-indazol-7-yl)quinazolin-4-yl)-2-fluorobenzonitrile] | ≤ 30 nM |
| Cc1cccc(Cl)c1-c1ccc2nc(N3CCC(N)CC3)nc(-c3ccc(C#N)c(F)c3)c2c1 [Compound 21, 4-(2-(4-Aminopiperidin-1-yl)-6-(2-chloro-6-methylphenyl)quinazolin-4-yl)-2-fluorobenzonitrile] | ≤ 30 nM |
| N#Cc1ccc(-c2nc(NC[C@H]3CCNC3)nc3ccc(-c4c(Cl)cccc4Cl)cc23)cc1F [Compound 51, (S)-4-(6-(2,6-dichlorophenyl)-2-((pyrrolidin-3-ylmethyl)amino)quinazolin-4-yl)-2-fluorobenzonitrile] | ≤ 30 nM |
| COC1=CC=C(c2c(-c3ccc(C#N)c(F)c3)nc(N3CCC(N)CC3)n(C)c2=O)CC1F (stereo not shown) [CC90011, reference compound] | ≤ 30 nM |
| N#Cc1ccc(-c2nc(N3CCC(N)CC3)nc3c(F)cc(-c4ccccc4F)cc23)cc1F [Compound 81] | 30 to 300 nM |
| N#Cc1ccc(-c2nc(N3CCC(N)CC3)nc3ccc(-c4cccc(F)c4F)cc23)cc1F [Compound 17, 4-(2-(4-aminopiperidin-1-yl)-6-(2,3-difluorophenyl)quinazolin-4-yl)-2-fluorobenzonitrile] | 30 to 300 nM |
| N#Cc1ccc(-c2nc(N3CCC4NCCC4C3)nc3ccc(-c4c(F)cccc4C(F)(F)F)cc23)cc1F (stereo not shown) [Compound 76, 2-Fluoro-4-(6-(2-fluoro-6-(trifluoromethyl)phenyl)-2-(octahydro-5H-pyrrolo[3,2-c]pyridin-5-yl)quinazolin-4-yl)benzonitrile] | ≤ 30 nM |
| Cc1nn(C)c(C)c1-c1ccc2nc(NC[C@H]3CCNC3)nc(-c3ccc(C#N)c(F)c3)c2c1 [Compound 49, (S)-2-fluoro-4-(2-((pyrrolidin-3-ylmethyl)amino)-6-(1,3,5-trimethyl-1H-pyrazol-4-yl)quinazolin-4-yl)benzonitrile] | 30 to 300 nM |
| Cn1ncc2cccc(N3CCc4nc(N5CCC(N)CC5)nc(-c5ccc(C#N)c(F)c5)c4C3)c21 [Compound 94, 4-(2-(4-aminopiperidin-1-yl)-6-(1-methyl-1H-indazol-7-yl)-5,6,7,8-tetrahydropyrido[4,3-d]pyrimidin-4-yl)-2-fluorobenzonitrile] | 30 to 300 nM |
| Cc1noc(C)c1-c1ccc2nc(N3CCC(N)CC3)nc(-c3ccc(C#N)c(F)c3)c2c1 [Compound 3, 4-(2-(4-aminopiperidin-1-yl)-6-(3,5-dimethylisoxazol-4-yl)quinazolin-4-yl)-2-fluorobenzonitrile] | 30 to 300 nM |
| CNC1CCN(c2nc(-c3ccc(C#N)c(F)c3)c3cc(-c4c(F)cccc4C(F)(F)F)ccc3n2)CC1 [Compound 66, 2-Fluoro-4-(6-(2-fluoro-6-(trifluoromethyl)phenyl)-2-(4-(methylamino)piperidin-1-yl)quinazolin-4-yl)benzonitrile] | ≤ 30 nM |
| Cc1cccc(C)c1-c1ccc2nc(NC[C@H]3CCNC3)nc(-c3ccc(C#N)c(F)c3)c2c1 [Compound 45, (S)-4-(6-(2,6-dimethylphenyl)-2-((pyrrolidin-3-ylmethyl)amino)quinazolin-4-yl)-2-fluorobenzonitrile] | ≤ 30 nM |
| Cc1ccccc1-c1ccc2nc(NC[C@@H]3CCNC3)nc(-c3ccc(C#N)c(F)c3)c2c1 [Compound 38, (R)-2-fluoro-4-(2-((pyrrolidin-3-ylmethyl)amino)-6-(o-methylphenyl)quinazolin-4-yl)benzonitrile] | 30 to 300 nM |
| N#Cc1ccc(-c2nc(N3CCCC(N)C3)nc3ccc(-c4c(F)cccc4C(F)(F)F)cc23)cc1F (stereo not shown) [Compound 70, 4-(2-(3-aminopiperidin-1-yl)-6-(2-fluoro-6-(trifluoromethyl)phenyl)quinazolin-4-yl)-2-fluorobenzonitrile] | ≤ 30 nM |
| N#Cc1ccc(-c2nc(N3CCCC(N)CC3)nc3ccc(-c4c(F)cccc4C(F)(F)F)cc23)cc1F (stereo not shown) [Compound 72, 4-(2-(4-aminoazepan-1-yl)-6-(2-fluoro-6-(trifluoromethyl)phenyl)quinazolin-4-yl)-2-fluorobenzonitrile] | ≤ 30 nM |
| N#Cc1ccc(-c2nc(N3CCC[C@H](N)CC3)nc3ccc(-c4c(F)cccc4C(F)(F)F)cc23)cc1F [Compound 88, (S)-4-(2-(4-aminoazepan-1-yl)-6-(2-fluoro-6-(trifluoromethyl)phenyl)quinazolin-4-yl)-2-fluorobenzonitrile] | ≤ 30 nM |

| Compound | IC50 |
| --- | --- |
| CC1(C)CN(c2nc(-c3ccc(C#N)c(F)c3)c3cc(-c4c(F)cccc4C(F)(F)F)ccc3n2)CCC1N (stereo not shown) [Compound 71, 4-(2-(4-amino-3,3-dimethylpiperidin-1-yl)-6-(2-fluoro-6-(trifluoromethyl)phenyl)quinazolin-4-yl)-2-fluorobenzonitrile] | ≤ 30 nM |
| N#Cc1ccc(-c2nc(N3CCC(N)CC3)nc3ccc(-c4c(F)cccc4Cl)cc23)cc1F [Compound 22, 4-(2-(4-Aminopiperidin-1-yl)-6-(2-chloro-6-fluorophenyl)quinazolin-4-yl)-2-fluorobenzonitrile] | ≤ 30 nM |
| N#Cc1ccc(-c2nc(N3CCC[C@@H](N)C3)nc3ccc(-c4c(F)cccc4C(F)(F)F)cc23)cc1F [Compound 74, (R)-4-(2-(3-aminopiperidin-1-yl)-6-(2-fluoro-6-(trifluoromethyl)phenyl)quinazolin-4-yl)-2-fluorobenzonitrile] | ≤ 30 nM |
| C[C@@H]1CN(c2nc(-c3ccc(C#N)c(F)c3)c3cc(-c4c(F)cccc4C(F)(F)F)ccc3n2)CC[C@H]1N [Compound 68, 4-(2-((3R,4R)-4-amino-3-methylpiperidin-1-yl)-6-(2-fluoro-6-(trifluoromethyl)phenyl)quinazolin-4-yl)-2-fluorobenzonitrile] | ≤ 30 nM |
| N#Cc1ccc(-c2nc(N3CCC(N)CC3)nc3ccc(-c4ccccc4Cl)cc23)cc1F [Compound 16, 4-(2-(4-aminopiperidin-1-yl)-6-(2-chlorophenyl)quinazolin-4-yl)-2-fluorobenzonitrile] | ≤ 30 nM |
| Cc1cc(C)c(-c2ccc3nc(NC[C@H]4CCNC4)nc(-c4ccc(C#N)c(F)c4)c3c2)c(C)c1 [Compound 46, (S)-4-(6-(2,4,6-trimethylphenyl)-2-((pyrrolidin-3-ylmethyl)amino)quinazolin-4-yl)-2-fluorobenzonitrile] | ≤ 30 nM |
| N#Cc1ccc(-c2nc(NC[C@H]3CCNC3)nc3ccc(-c4ccccc4OC(F)(F)F)cc23)cc1F [Compound 39, (S)-2-fluoro-4-(2-((pyrrolidin-3-ylmethyl)amino)-6-(2-(trifluoromethoxy)phenyl)quinazolin-4-yl)benzonitrile] | 30 to 300 nM |
| N#Cc1ccc(-c2nc(N3CCC[C@H](N)C3)nc3ccc(-c4c(F)cccc4C(F)(F)F)cc23)cc1F [Compound 75, (S)-4-(2-(3-aminopiperidin-1-yl)-6-(2-fluoro-6-(trifluoromethyl)phenyl)quinazolin-4-yl)-2-fluorobenzonitrile] | 30 to 300 nM |
| N#Cc1ccc(-c2nc(N3CCC(N)CC3)nc3cc(F)c(-c4ccccc4F)cc23)cc1F [Compound 78, 4-(2-(4-aminopiperidin-1-yl)-7-fluoro-6-(2-fluorophenyl)quinazolin-4-yl)-2-fluorobenzonitrile] | ≤ 30 nM |
| N#Cc1ccc(-c2nc(N3CCC(N)CC3)nc3ccc(-c4c(Cl)cccc4Cl)cc23)cc1F [Compound 20, 4-(2-(4-aminopiperidin-1-yl)-6-(2,6-dichlorophenyl)quinazolin-4-yl)-2-fluorobenzonitrile] | ≤ 30 nM |
| COc1ccc(-c2ccc3nc(NC[C@@H]4CCNC4)nc(-c4ccc(C#N)c(F)c4)c3c2)cc1F [Compound 36, (R)-2-fluoro-4-(6-(3-fluoro-4-methoxyphenyl)-2-((pyrrolidin-3-ylmethyl)amino)quinazolin-4-yl)benzonitrile] | 30 to 300 nM |
| N#Cc1ccc(-c2nc(N3CCC(N)CC3)nc3c(F)cc(-c4ccccc4C(F)(F)F)cc23)cc1F [Compound 80, 4-(2-(4-aminopiperidin-1-yl)-8-fluoro-6-(2-trifluoromethylphenyl)quinazolin-4-yl)-2-fluorobenzonitrile] | ≤ 30 nM |
| Cc1cccc(F)c1-c1ccc2nc(NC[C@H]3CCNC3)nc(-c3ccc(C#N)c(F)c3)c2c1 [Compound 48, (S)-2-fluoro-4-(6-(2-fluoro-6-methylphenyl)-2-((pyrrolidin-3-ylmethyl)amino)quinazolin-4-yl)benzonitrile] | ≤ 30 nM |
| COc1ccc(-c2ccc3nc(NC[C@H]4CCNC4)nc(-c4ccc(C#N)c(F)c4)c3c2)cc1F [Compound 35, (S)-2-fluoro-4-(6-(3-fluoro-4-methoxyphenyl)-2-((pyrrolidin-3-ylmethyl)amino)quinazolin-4-yl)benzonitrile] | 30 to 300 nM |
| Cc1ccccc1-c1ccc2nc(NC[C@H]3CCNC3)nc(-c3ccc(C#N)c(F)c3)c2c1 [Compound 37, (S)-2-fluoro-4-(2-((pyrrolidin-3-ylmethyl)amino)-6-(o-methylphenyl)quinazolin-4-yl)benzonitrile] | 30 to 300 nM |
